Assay results taken from patent US12310971B2, “Coffee bean compositions comprising paraxanthine and methods for their production” (RAREBIRD, INC., priority 2021, dated 2025).

Key:
[1] = in humans; cited from earlier work
[2] = Paraxanthine concentration in filtered aqueous stock infusion solution; assay type: physicochemical; details: 18 grams of paraxanthine mixed in 1 liter of water at 85° C., filtered to remove undissolved paraxanthine
Protocol: In the first, infusing, step, the three batches of green coffee beans were individually infused with paraxanthine dissolved in water, the infusion solvent, to produce green solvated paraxanthine coffee beans. A stock solution of infusion solvent comprising paraxanthine was generated by mixing 18 grams of paraxanthine in 1 liter of water at 85° C.; the solution was then filtered to remove any residual, undissolved paraxanthine. The paraxanthine concentration in the stock solution was approximately 74 mM. Infusions were performed in 250-mL glass jars using 60 grams of green coffee beans and 120 grams of the stock infusion solution. The mixtures were incubated at 85° C. for 1 hour with periodic mixing. Subsequently, the green solvated paraxanthine coffee beans were separated using a colander, rinsed, and residual solvent removed from the surface of the beans. The mass of the infused beans was measured and compared to the mass of the original green coffee beans to determine the infusion solvent content. The moisture contents for batches 1, 2, and 3 were 45.1%, 46.9%, and 44.8%, respectively.

[3] = Solubility of paraxanthine in infusion solvents as a function of pH; assay type: physicochemical; details: dependence on pH
Text: Thus, performing the infusing step at a pH of 7 or higher can be useful to increase the paraxanthine content of the finished paraxanthine coffee. In various embodiments, the pH of the infusion mixture is greater than pH 7. In some embodiments, the pH of the infusion mixture is greater than pH 8. In some embodiments, the pH of the infusion mixture is greater than 8.5. In some embodiments, the pH of the infusion mixture is greater than 9.0. In some embodiments, the pH of the infusion mixture is greater than 9.5.

Row | SMILES | half-life [1] [h] | paraxanthine concentration in the stock solution [2] | solubility of paraxanthine in the infusion solvents [3]
1 | Cn1c(=O)c2c(ncn2C)n(C)c1=O [caffeine] | 4.1 ± 0.8 | – | –
2 | Cn1c(=O)[nH]c2ncn(C)c2c1=O [paraxanthine] | – | approximately 74 mM | increases with increasing pH
